Laboratory results reported in US11793824B2, “Administration of nicotinamide mononucleotide in the treatment of disease” (Washington University, priority 2013, dated 2023).
Entries after “also recorded” stand apart in the source; their conditions may differ.

Legend:
[1] = tested on: 661W cone PR cell line; assay: 661W cone PR cell line: cell death and intracellular NAD under FK866 with or without NMN; format: cell-based, mouse
Source text: The present inventors assessed the physiological importance of NAMPT-mediated NAD biosynthesis in the retina by generating rod cell- and cone cell-specific NAMPT knockout mice. […] Both a and b wave ERG responses were completely depressed as characterized by a total lack of response to all stimuli. […] NMN administration is an effective intervention to treat/prevent retinal degeneration.
The inventors used a 661W cone PR cell line and treated the cells with the specific pharmacological NAMPT inhibitor FK866 (200 nM). […] Cell death progresses dramatically over the next 20 hours.

[2] = tested on: 661W cone cells; assay: 661W cone cells: oxygen consumption rate measurement assay; format: cell-based, mouse
Procedure: There was an abundance of degenerative vacuoles with ingested organelles including mitochondria in rod-CKO mice with no such structures identified in littermate wild type controls. At 3 weeks of age, subtle changes in inner segments could be identified in rod-CKO mice although they were not as dramatic as those seen by 4 weeks (FIG. 35). […] The inventors treated 661W cone cells with NAMPT inhibitor FK866 (200 nM). In the oxygen consumption rate measurement assay, multiple aspects of mitochondrial function were analyzed.

[3] = molecular target: T1, Nampt (Mus musculus, UniProt Q99KQ4); assay: NAD+ levels in neurospheres treated with FK866 with or without NMN; format: cell-based
T1 construct: endogenous in cells; host or cells: primary neurospheres (NSPCs) from hippocampi of postnatal mice
T1 sequence (Q99KQ4 whole entry): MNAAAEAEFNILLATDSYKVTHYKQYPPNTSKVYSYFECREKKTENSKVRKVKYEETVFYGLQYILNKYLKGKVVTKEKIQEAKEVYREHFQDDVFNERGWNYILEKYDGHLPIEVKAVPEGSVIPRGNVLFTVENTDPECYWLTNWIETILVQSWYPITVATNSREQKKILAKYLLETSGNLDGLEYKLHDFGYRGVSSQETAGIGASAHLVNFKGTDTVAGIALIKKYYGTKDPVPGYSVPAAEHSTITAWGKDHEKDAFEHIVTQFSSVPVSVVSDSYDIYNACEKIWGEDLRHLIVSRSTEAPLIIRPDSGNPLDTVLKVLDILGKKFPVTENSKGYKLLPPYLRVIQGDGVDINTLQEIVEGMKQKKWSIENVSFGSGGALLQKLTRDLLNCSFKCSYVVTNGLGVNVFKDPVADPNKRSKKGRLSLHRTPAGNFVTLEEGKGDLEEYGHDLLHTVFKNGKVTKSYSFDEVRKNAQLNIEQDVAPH
Procedure: NAD+ levels were determined using an HPLC system (Shimadzu) with a Supelco LC-18-T column (15 cm×4.6 cm; Sigma), as described previously (Yoshino et al, 2011).
Neurosphere cultures and culture media were prepared as described by Dasgupta & Gutmann, 2005 and Lu & Ramanan, 2012 with the following minor modifications. Briefly, postnatal hippocampi were dissected in HibernateA (Invitrogen, A12475-01) and trypsinized at 37° C. for 7 m. Cells were mechanically dissociated by pipetting and pelleted by centrifugation (1700 rpm, 7 min). Dissociation medium (0.1% sodium bicarbonate, 15 mM HEPES, 0.5% glucose in HBSS) was used to wash the cells before they were resuspended in growth medium. Growth medium consisted of DMEM:F12 (1:1, Invitrogen 11966-025 and 21700-075, respectively), B27 (Invitrogen, 17504-044), N2 (Invitrogen, 17502-048), Pen/Strep (Invitrogen), epidermal growth factor (EGF, 20 ng/ml, Sigma, E4127), fibroblast growth factor (FGF, 10 ng/mL, R&D Systems, 233-fb), and heparin (Sigma). Cultures were maintained at 37° C. with 5% CO2, and passaged twice before use in experiments. […]

[4] = tested on: neurospheres (NSPCs); assay: Neurosphere proliferation, marker proteins and cell cycle under FK866; format: cell-based, mouse
Procedure: Protein extracts (15-50 μg) from mouse hippocampi or neurospheres were prepared as previously described (Yoshino et al, 2011).
Total RNA was extracted from the hippocampus using an RNeasy kit (Qiagen) and reverse-transcribed into cDNA with a High Capacity cDNA Reverse Transcription kit (Applied Biosystems). Quantitative real-time RT-PCR was conducted with the TaqMan Fast Universal PCR Master mix and appropriate TaqMan primers for each gene with the GeneAmp 7500 fast sequence detection system (Applied Biosystems). Relative expression levels were calculated for each gene by normalizing to Gapdh levels and then to a control.
FK866 (Hasmann & Schemainda, 2003) (Sigma F8557), EX527 (Peck et al, 2010) (Cayman Chemical 10009798), and AGK2 (Outeiro et al, 2007) (Sigma A8231) were dissolved in DMSO and used to inhibit Nampt, Sirt1, and Sirt2 respectively.
Neurosphere cultures and culture media were prepared as described by Dasgupta & Gutmann, 2005 and Lu & Ramanan, 2012 with the following minor modifications. Briefly, postnatal hippocampi were dissected in HibernateA (Invitrogen, A12475-01) and trypsinized at 37° C. for 7 m. Cells were mechanically dissociated by pipetting and pelleted by centrifugation (1700 rpm, 7 min). Dissociation medium (0.1% sodium bicarbonate, 15 mM HEPES, 0.5% glucose in HBSS) was used to wash the cells before they were resuspended in growth medium. Growth medium consisted of DMEM:F12 (1:1, Invitrogen 11966-025 and 21700-075, respectively), B27 (Invitrogen, 17504-044), N2 (Invitrogen, 17502-048), Pen/Strep (Invitrogen), epidermal growth factor (EGF, 20 ng/ml, Sigma, E4127), fibroblast growth factor (FGF, 10 ng/mL, R&D Systems, 233-fb), and heparin (Sigma). Cultures were maintained at 37° C. with 5% CO2, and passaged twice before use in experiments. Three to nine independent samples, each in 1 to 3 replicates, from at least two different litters, were used in all experiments. Neurospheres were cultured in the physiological glucose level of 5 mM (Dienel & Cruz, 2006), which has been previously shown to have no negative consequences on NSPC proliferation, differentiation, or death (Fu et al, 2006; Gao & Gao, 2007).
Neurospheres derived from Nampt^flox/flox mice were dissociated by trypsin digestion and seeded at similar cell densities in 24-well plates with fresh growth medium. Every 24 hours, neurospheres from triplicate wells were collected, dissociated, and counted on a hemocytometer using 0.2% trypan blue exclusion to distinguish viable cells. For analysis of neurosphere diameter, the largest neurosphere in each well was imaged (20× objective) and the diameter was calculated using ImageJ. For secondary neurosphere analysis, the total number of neurospheres in each well was counted at 7 days post-plating.
The inventors investigated how inhibition of Nampt affects neurosphere proliferation. […] To distinguish whether this decrease in cell number was due to an inhibition of proliferation or enhancement of death, the inventors analyzed the protein levels of markers of proliferation, apoptosis, and autophagy. […] Parametric analysis of gene enrichment (PAGE) was conducted based on microarray analyses. See the Methods section. […] Data are presented as mean±s.e.m. *P<0.05. **P<0.01. ***P<0.001.

[5] = Tear production, modified Schirmer's test; format: in vivo, mouse
Procedure: (§1) A 12 month-long NMN administration study using wild-type mice under a regular chow-fed condition was conducted. NMN was administered through drinking water, and two doses of NMN, 100 and 300 mg/kg body weight/day, were tested. […] To assess beneficial and possible adverse effects of NMN, a variety of physiological parameters were periodically monitored, including body weight, body temperature, food and water intake, fed and fasted blood glucose levels, fed and fasted plasma lipid panels, and glucose and insulin tolerance, in NMN-administered and control mice. Blood chemistry, blood cell counts, urine strip test, and other physiological tests including physical activity test were also checked.
In this long-term NMN administration study (See Methods; Administration of NMN through Drinking Water and Determination of NMN Stability and Toxicity), tear production was assessed in control and NMN-administered mice with modified Schirmer's test. All values are presented as mean±SEM. **p<0.01.

[6] = Stability of NMN in drinking water; format: physicochemical
[7] = Bone mineral density by dual-energy X-ray absorptiometry (DXA); format: in vivo, mouse; settings: 12-month time point, 17-18 month old mice
Procedure: as §1
The inventors measured the bone mineral density (BMD) of control and NMN-treated mice at the 12-month time point of a 12 month long NMN administration experiment by dual-energy X-ray absorptiometry (DXA). At this time point, mice were 17-18 month old.

[8] = FK866 10 nM, 48 hours, immunoblot

With `O=C(/C=C/c1cccnc1)NCCCCC1CCN(C(=O)c2ccccc2)CC1` [FK866] the “intracellular NAD levels” value ([1]; FK866 200 nM) was “decrease in intracellular NAD levels”, the “cell death of 661W cells” value ([1]; FK866 200 nM, after 4 hours of treatment) was “significant cell death; also recorded: apoptotic cell death” and the maximal respiration ([2]; FK866 200 nM) was “significantly reduced”. The “NAD+ levels in neurospheres” value ([3]; FK866 10 nM, 48 hours) was 4 % of controls, the “cyclins E and A and E2F1 mRNA (qRT-PCR)” value ([4]; FK866 10 nM, 48 hours) was “the primary cell cycle factors affected” and the “levels of activated caspase 3” value ([4]; FK866 10 nM, 48 hours) was “only slightly increased”. The “levels of autophagy marker glycosylated LC3B” value ([4]; FK866 10 nM, 48 hours) was “unchanged”, the “reduction of NSPC number” value ([4]; FK866 10 nM, 48 hours) was 61% and the “decrease of Ki67 protein expression” value [4, 8] was 87%. The “decrease of PCNA protein expression” value [4, 8] was 43%, the “proportion of NSPCs in G0/G1 (FACS)” value ([4]; FK866 treatment) was “increased the proportion of NSPCs in G0/G1” and the “proportion of NSPCs in S phase (FACS)” value ([4]; FK866 treatment) was “decreased the proportion in S phase”.

With `NC(=O)c1ccc[n+]([C@@H]2O[C@H](COP(=O)([O-])O)[C@@H](O)[C@H]2O)c1` [NMN, nicotinamide mononucleotide] the “NAD levels under FK866” value ([1]; NMN 100 μM with FK866) was “restore NAD to normal levels”, the “rescue from FK866-mediated cell death” value ([1]; NMN 100 μM with FK866) was “completely rescue; also recorded: successfully rescued” and the “effects of FK866 on mitochondrial function” value ([2]; NMN treatment with FK866) was “completely reverse”. The “rescue of FK866-induced decrease of NAD+ levels” value ([3]; concurrent NMN 100 μM with FK866 10 nM) was “completely rescued”, the tear production ([5]; 300 mg/kg group) was “comparable to the maximal tear production through the mouse lifespan” and the tear production ([5]; 18 month-old mice, 100 and 300 mg/kg) was “increased tear production in a dose-dependent manner”. For the same compound, the “stability of NMN in drinking water” value ([6]; in solution) was “stable in solution”, the “degradation of NMN in drinking water” value ([6]; room temperature) was “No significant degradation” and the “increase in the BMD” value ([7]; 100 mg/kg group) was 2.8%. For the same compound, the “increase in the BMD” value ([7]; 300 mg/kg group) was 5.9%.
